The subject of one assay is mouse. Nature of the assay: Oral activity in vivo (audiogenic mouse test and/or MES test). The note with it: oral administration. The method, then: The oral bioavailability was tested using the audiogenic mouse test (Audiogenic seizures, R. L. Collins; Chapter 14, pages: 347-372. In: Experimental Models of Epilepsy; By: Pupura, Penry, Tower, Woodbury, Waiter, Raven Press, New York, 1972. Standard Book Number: 0-911216-26-X) and/or the MES test.

For another assay, the system named is OF1 mice. Nature of the assay: Murine maximal electroshock test (MES test). It counts as in vivo, mouse. The note with it: p.o., percentage of protected mice, printed '@ 25' (mg/kg).

The values below come from patent publication US20120122903A1, “1-H-QUINAZOLINE-2, 4-DIONES FOR USE IN THE TREATMENT OF NEURONAL CEROID LIPOFUSCINOSIS” (priority 2009, published 2012).

Regarding `COCCn1nccc1-c1cc2c(=O)n(NS(C)(=O)=O)c(=O)[nH]c2cc1C(C)C` [Compound C-1, N-{7-Isopropyl-6-[2-(2-methoxy-ethyl)-2H-pyrazol-3-yl]-2,4-dioxo-1,4-dihydro-2H-quinazolin-3-yl}-methanesulfonamide], the “In vivo orally active” value with mouse is “yes”. Besides, in the assay with OF1 mice, the “MES-Test (1 h, po) % protection @ 25” value is 40% @ 25^.

Turning to `CS(=O)(=O)Nn1c(=O)[nH]c2cc(C(F)(F)F)c(C3CCOC3)cc2c1=O` (stereo not shown) [Compound B-3, N-[2,4-Dioxo-6-(tetrahydro-furan-3-yl)-7-trifluoromethyl-1,4-dihydro-2H-quinazolin-3-yl]-methanesulfonamide], the “In vivo orally active” value in the assay on mouse is “Yes”. In addition, the “MES-Test (1 h, po) % protection @ 25” value in the assay on OF1 mice was 20% @ 25^3.
